According to US7892350B2, “Sacrificial agents for fly ash concrete” (Boral Material Technologies Inc., priority 2003, dated 2011):

Columns and labels:
[1] = Adsorption/precipitation of SA or AEA in 10 wt % aqueous fly ash or cement slurries at pH 12.5; type: physicochemical; details: initial SA 3 mM
Protocol: Adsorption/Precipitation of Sacrificial Agents (SA) or Air Entrainment Agents (AEA) in 10 wt % Aqueous Fly Ash Slurries at pH 12.5:
(§1) The pH of the solutions were adjusted to 12.5 with NaOH.
Adsorption/Precipitation in FA or Cement Slurries: In this protocol, aqueous slurries containing 10 wt % FA or cement were prepared as described above, except that in this case, the cement was added directly into a solution of the SA or AEA in the following proportions: 3.0 g cement or FA, and 27 g of 3 mM sacrificial agent, or 27 g of 1050 mg/l AEA; the latter were prepared in the same way as in the precipitation test above. The residual (soluble) SA or AEA content in the solution was also determined by UV or COD.

[2] = Precipitation in slurry extract or leachate; type: physicochemical; details: pH 12.5, entries in parentheses
Protocol: as §1
Precipitation in slurry extract or leachate: To perform this test, FA or cement leachate were prepared in advance, by filtering two liters of a 10 wt % FA, or cement, slurry in 0.03N NaOH which had been left to stand under slow agitation for 30 min; 2.5 g of the filtrate solution was mixed with 22.5 g of the SA or AEA solution in a 50 ml polypropylene centrifuge tube; the latter was shaken vigorously in an orbital shaker (Eberbach Corporation) for 30 min at room temperature, centrifuged for 5 min and then the supernatant solution was filtered (0.45 μm). The SA or AEA content of the solution was determined using an Ultraviolet-Visible (UV) spectrometer or by COD (Chemical Oxygen Demand) measurement.
Entries in parentheses: % precipitation when reacted with solutions extracted from the fly ash slurries (Results in Table 5).

[3] = Paste air entrainment, Minimum air protocol
Protocol: (§2) Preparation of pastes: Pastes were prepared by pouring 400 g of cementitious powder in the 350-400 g of solution (water and additives) in a vessel (8.4 cm dia,×14.5 cm height) while gently stirring with a spatula; the exact quantity of water depends on the selected W/B ratio (see below); rapid hand mixing was continued for 1 minute, followed by intense stirring at 25° C. during 2 min using a hand-held mixer (BRAUN model MR400). The level of air entrained is dependent on the mode of utilisation of the mixer, namely the height of the mixer from the bottom of the vessel and the length of the mixing stroke; the following protocols were adopted.
Minimum air protocol: The BRAUN mixer is positioned at 1.0 inch from the bottom of the mixing vessel and the up-down motion of the mixer is limited to a 1.0 inch displacement; this provided ‘minimum air’ entrained air levels and is later referred to as ‘Minimum air protocol’ (Results reported in Table 6, col. 1 and Table 7).
(§3) Fluidity measurements: For all air entrainment measurements, the initial fluidity of the paste (without additives) was controlled using the ‘mini-slump’ procedure widely used for paste and grouts. In this protocol, a portion of the paste was transferred into the min-slump cone (a 2¼″ high, 1½″ bottom diameter, ¾″ top diameter cone); excess paste was skimmed-off with a straight; the cone was then raised and the spread diameter of the paste was recorded (average of two measurements). The fluidity is measured at 10 minutes after mixing. The paste is returned to the batch and reserved for subsequent AE measurements. The fluidity of the paste (without SA and AEA) is adjusted by changing the amount of water (water/cementitious ratio) which yields a spread diameter of 115±5 mm. The latter is monitored regularly.
(§4) Air entrainment measurements: For air entrainment measurements, a portion of the paste was transferred to overfill a Plexiglas cylinder (3¾ inches height, 2 inches interior diameter), which was then levelled flush to the top of the cylinder with a straight edge. The mass of the filled cylinder, minus the weight of the empty cylinder, is then recorded and used to calculate the amount of air according to the following formula: […]
(§5) This procedure was carried out at three times at 30 min. intervals (6, 36 and 66 min); the paste was let to stand at rest between measurements, and was stirred gently by hand for one minute prior to the subsequent air entrainment measurements.
Typical mixture compositions for air entrainment measurements in pastes containing a single additive using ‘Minimum air protocol’ (results shown in Table 6, col. 1): […]

[4] = Paste air entrainment, Maximum air protocol; details: PCA cement paste; 0.0125% SA or AEA alone; Maximum air protocol
Protocol: as §2, §3, §4, §5
Other combinations of air entrainment agents and sacrificial agents were prepared as stock solutions following the procedure outlined above, adjusting the weights of the various components to achieve the desired component ratios.

[5] = 10 wt % fly ash B1 (LOI 4.36%) slurry, Air 30/Air 40 0.105 wt %
[6] = 10 wt % fly ash C1, class C (LOI 1.62%) slurry, Air 30/Air 40 0.105 wt %
[7] = 10 wt % fly ash C2 (LOI 3.32%) slurry
[8] = 10 wt % fly ash M1 (LOI […]) slurry, Air 30/Air 40 0.105 wt %
[9] = 10 wt % fly ash M2 (LOI 5.34%) slurry, Air 30/Air 40 0.105 wt %
[10] = 10 wt % fly ash M3 (LOI 11.33%) slurry, Air 30/Air 40 0.105 wt %
[11] = 10 wt % fly ash N (LOI 0.30%) slurry
[12] = solution extracted from 10 wt % fly ash B1 (LOI 4.36%) slurry
[13] = solution extracted from 10 wt % fly ash C1, class C (LOI 1.62%) slurry
[14] = solution extracted from 10 wt % fly ash C2 (LOI 3.32%) slurry
[15] = solution extracted from 10 wt % fly ash M1 (LOI […]) slurry
[16] = solution extracted from 10 wt % fly ash M2 (LOI 5.34%) slurry
[17] = solution extracted from 10 wt % fly ash M3 (LOI 11.33%) slurry
[18] = solution extracted from 10 wt % fly ash N (LOI 0.30%) slurry

| Adsorption (wt % Adsorbed) [1, 5] [wt %] | Adsorption (wt % Adsorbed) [1, 6] [wt %] | Adsorption (wt % Adsorbed) [1, 7] [wt %] | Adsorption (wt % Adsorbed) [1, 8] [wt %] | Adsorption (wt % Adsorbed) [1, 9] [wt %] | Adsorption (wt % Adsorbed) [1, 10] [wt %] | Adsorption (wt % Adsorbed) [1, 11] [wt %] | Precipitation (wt % precipitated) [2, 12] [wt %] | Precipitation (wt % precipitated) [2, 13] [wt %] | Precipitation (wt % precipitated) [2, 14] [wt %] | Precipitation (wt % precipitated) [2, 15] [wt %] | Precipitation (wt % precipitated) [2, 16] [wt %] | Precipitation (wt % precipitated) [2, 17] [wt %] | Precipitation (wt % precipitated) [2, 18] [wt %] | SMILES | other results |
| --- | --- | --- | --- | --- | --- | --- | --- | --- | --- | --- | --- | --- | --- | --- | --- |
| 25 | 25 | 20 | 13 | 23 | 23 | 16 | 12 | 11 | 14 | 11 | 15 | 13 | 11 | NCc1ccccc1 [BA, Benzylamine] | – |
| 9 | 61 | 4 | 90 | 9 | 12 | 20 | 0 | 0 | 0 | 80 | 0 | 0 | 0 | O=C([O-])c1cccc2ccccc12.[Na+] [NA, 1-Naphthoic acid sodium salt] | Air entrained ([3]; 50:50 fly ash B1 (LOI 4.36%):PCA paste, 0.1 wt % Air 30 alone or with 0.05 wt % of the SA): 4 vol %; Air entrained ([3]; 50:50 fly ash C1 (LOI 1.62%):PCA paste, 0.1 wt % Air 30 alone or with 0.05 wt % of the SA): 5 vol %; Air entrained ([3]; 50:50 fly ash D (LOI […]):PCA paste, 0.1 wt % Air 30 alone or with 0.05 wt % of the SA): 6 vol %; Air entrained ([3]; 50:50 fly ash M1 (LOI […]):PCA paste, 0.1 wt % Air 30 alone or with 0.05 wt % of the SA): 6 vol %; Air entrained ([3]; 50:50 fly ash M2 (LOI 5.34%):PCA paste, 0.1 wt % Air 30 alone or with 0.05 wt % of the SA): 4 vol %; Air entrained ([3]; 50:50 fly ash M3 (LOI 11.33%):PCA paste, 0.1 wt % Air 30 alone or with 0.05 wt % of the SA): 5 vol %; Air entrained ([3]; 50:50 fly ash R (LOI […]):PCA paste, 0.1 wt % Air 30 alone or with 0.05 wt % of the SA): 4 vol %; Air entrained ([3]; PCA cement paste, 0.1% SA or AEA alone, Minimum air protocol): 0 vol %; Average of air entrained ([3]; over the fly ash:PCA pastes of Table 7, 0.1 wt % Air 30 alone or with 0.05 wt % of the SA): 5%; Air entrained [4]: 0 vol % |
